Laboratory results published in ChEMBL document CHEMBL4334495, “Design and Biological Evaluation of m-Xylene Thioether-Stapled Short Helical Peptides Targeting the HIV-1 gp41 Hexameric Coiled-Coil Fusion Complex” (J Med Chem, 2019).
Starred links: 1 amine or outer side, 2 acyl side, 3 side chain; linkers in the order of their positions; H or OH if unused. Positions of bridges follow the written chain, without caps; N, C: chain ends. Non-standard residues stand in square brackets, D forms with d. Residues, ends and D or L forms follow the SMILES beside them. ξ: configuration not given here. mXylylene = c1cc(C[*:1])cc(C[*:2])c1; ξhCys = NC(CCS)C(=O)O

Key:
[1] = system: Human immunodeficiency virus 1; assay: Antiviral activity against T20 resistant HIV1 NL4-3 harboring with V38E/N42S mutant infected in human MT2 cells or CEMx174 5.25 M7 cells assessed as reduction in p24 Gag protein production measured at 4 days post-infection by ELISA; format: functional, organism-based
[2] = system: Human immunodeficiency virus 1; assay: (§1) Antiviral activity against T20 resistant HIV1 NL4-3 harboring with V38E/N42T mutant infected in human MT2 cells or CEMx174 5.25 M7 cells assessed as reduction in p24 Gag protein production at 150:1 compound to HP23 ratio measured at 4 days post-infection by ELISA; format: functional, organism-based
[3] = system: Human immunodeficiency virus 1; assay: Ratio of EC50 for antiviral activity against HIV1 NL4-3 infected in human MT2 cells or CEMx174 5.25 M7 cells in absence of HP23 to EC50 for antiviral activity against HIV1 NL4-3 infected in human MT2 cells or CEMx174 5.25 M7 cells at 10:1 compound to HP23 ratio; format: functional
[4] = system: Human immunodeficiency virus 1; assay: (§2) Ratio of EC50 for antiviral activity against X4 tropic HIV-1 subtype-B 3B infected in human MT2 cells or CEMx174 5.25 M7 cells in absence of HP23 to EC50 for antiviral activity against X4 tropic HIV-1 subtype-B 3B infected in human MT2 cells or CEMx174 5.25 M7 cells at 6:1 compound to HP23 ratio; format: functional, HIV-1 group M
[5] = biological target: Envelope glycoprotein gp160 (Human immunodeficiency virus 1) (UniProt Q6QLK5); assay: (§3) Ratio of EC50 for inhibition of HIV1 gp41-induced cell-cell fusion between viral envelope expressing human HL2/3 cells to CD4/CCR5 receptor expressing TZM-bl cells in absence of HP23 to EC50 for inhibition of HIV1 gp41-induced cell-cell fusion between viral envelope expressing human HL2/3 cells to CD4/CCR5 receptor expressing TZM-bl cells at 2:1 compound to HP23 ratio
[6] = system: Human immunodeficiency virus 1; assay: Antiviral activity against T2635 resistant HIV1 LAI harboring Q66R mutant infected in human MT2 cells or CEMx174 5.25 M7 cells assessed as reduction in p24 Gag protein production measured at 4 days post-infection by ELISA; format: functional, organism-based, M:B_Lai
[7] = system: Human immunodeficiency virus 1; assay: Synergistic antiviral activity against T2635 resistant HIV1 LAI harboring Q66R mutant infected in human MT2 cells or CEMx174 5.25 M7 cells assessed as reduction in p24 Gag protein production by measuring combination index at 50:1 compound ratio measured at 4 days post infection by ELISA; format: functional, M:B_Lai
[8] = system: Human immunodeficiency virus 1; assay: Antiviral activity against R5 tropic HIV-1 subtype-B Bal infected in human MT2 cells or CEMx174 5.25 M7 cells assessed as reduction in p24 Gag protein production measured at 4 days post-infection by ELISA; format: functional, cell-based, HIV-1 group M; settings: Human immunodeficiency virus 1, Bal, 96 h
[9] = biological target: Envelope glycoprotein gp160 (Human immunodeficiency virus 1) (UniProt Q6QLK5); assay: as §3, with “4:1” for “2:1”
[10] = system: Human immunodeficiency virus 1; assay: Synergistic antiviral activity against HIV1 NL4-3 infected in human MT2 cells or CEMx174 5.25 M7 cells assessed as reduction in p24 Gag protein production by measuring combination index at 5:1 compound to HP23 ratio measured at 4 days post-infection by ELISA; format: functional
[11] = system: Human immunodeficiency virus 1; assay: Antiviral activity against X4 tropic HIV-1 subtype-B 3B infected in human MT2 cells or CEMx174 5.25 M7 cells assessed as reduction in p24 Gag protein production measured at 4 days post-infection by ELISA; format: functional, cell-based, HIV-1 group M; settings: Human immunodeficiency virus 1, 3B, 96 h
[12] = system: Human immunodeficiency virus 1; assay: Antiviral activity against X4 tropic HIV-1 subtype-B 3B infected in human MT2 cells or CEMx174 5.25 M7 cells assessed as reduction in p24 Gag protein production at 12:1 compound to HP23 ratio measured at 4 days post-infection by ELISA; format: functional, cell-based, HIV-1 group M; settings: Human immunodeficiency virus 1, 3B, 96 h
[13] = system: Human immunodeficiency virus 1; assay: Antiviral activity against HIV1 NL4-3 infected in human MT2 cells or CEMx174 5.25 M7 cells assessed as reduction in p24 Gag protein production measured at 4 days post infection by ELISA; format: functional, organism-based; settings: Human immunodeficiency virus 1, NL4-3, 96 h
[14] = system: Human immunodeficiency virus 1; assay: Antiviral activity against T20 resistant HIV1 NL4-3 harboring with V38E/N42T mutant infected in human MT2 cells or CEMx174 5.25 M7 cells assessed as reduction in p24 Gag protein production measured at 4 days post-infection by ELISA; format: functional, organism-based
[15] = system: Human immunodeficiency virus 1; assay: Ratio of EC50 for antiviral activity against HIV1 NL4-3 infected in human MT2 cells or CEMx174 5.25 M7 cells in absence of HP23 to EC50 for antiviral activity against HIV1 NL4-3 infected in human MT2 cells or CEMx174 5.25 M7 cells at 5:1 compound to HP23 ratio; format: functional
[16] = system: Human immunodeficiency virus 1; assay: as §1, with “Synergistic antiviral” for “Antiviral”, “production by measuring combination index” for “production”; format: functional
[17] = biological target: Envelope glycoprotein gp160 (Human immunodeficiency virus 1) (UniProt Q6QLK5); assay: as §3, with “1:1” for “2:1”
[18] = system: Human immunodeficiency virus 1; assay: Antiviral activity against T20 resistant HIV1 NL4-3 harboring with V38E/N42T mutant infected in human MT2 cells or CEMx174 5.25 M7 cells assessed as reduction in p24 Gag protein production at 150:1 hCS6ERE to compound ratio measured at 4 days post-infection by ELISA; format: functional, organism-based
[19] = system: Human immunodeficiency virus 1; assay: Ratio of EC50 for antiviral activity against HIV1 NL4-3 infected in human MT2 cells or CEMx174 5.25 M7 cells in absence of hCS6ERE to EC50 for antiviral activity against HIV1 NL4-3 infected in human MT2 cells or CEMx174 5.25 M7 cells at 10:1 hCS6ERE to compound ratio; format: functional
[20] = system: Human immunodeficiency virus 1; assay: Antiviral activity against HIV1 NL4-3 infected in human MT2 cells or CEMx174 5.25 M7 cells assessed as reduction in p24 Gag protein production at 5:1 hCS6ERE to compound ratio measured at 4 days post-infection by ELISA; format: functional, organism-based; settings: Human immunodeficiency virus 1, NL4-3, 96 h
[21] = system: Human immunodeficiency virus 1; assay: Antiviral activity against X4 tropic HIV-1 subtype-B 3B infected in human MT2 cells or CEMx174 5.25 M7 cells assessed as reduction in p24 Gag protein production at 24:1 ratio of hCS6ERE to compound measured at 4 days post-infection by ELISA; format: functional, cell-based, HIV-1 group M; settings: Human immunodeficiency virus 1, 3B, 96 h
[22] = system: Human immunodeficiency virus 1; assay: as §2, with “R5” for “X4”, “Bal” for “3B”, “hCS6ERE” for “HP23”, “6:1 ratio of hCS6ERE to” for “6:1”, “compound” for “compound to HP23 ratio”; format: functional, HIV-1 group M
[23] = system: Human immunodeficiency virus 1; assay: Antiviral activity against T20 resistant HIV1 NL4-3 harboring with V38E/N42S mutant infected in human MT2 cells or CEMx174 5.25 M7 cells assessed as reduction in p24 Gag protein production at 3500:1 hCS6ERE to compound ratio measured at 4 days post-infection by ELISA; format: functional, organism-based

Sequence of Envelope glycoprotein gp160 (Human immunodeficiency virus 1) (Q6QLK5 1-814): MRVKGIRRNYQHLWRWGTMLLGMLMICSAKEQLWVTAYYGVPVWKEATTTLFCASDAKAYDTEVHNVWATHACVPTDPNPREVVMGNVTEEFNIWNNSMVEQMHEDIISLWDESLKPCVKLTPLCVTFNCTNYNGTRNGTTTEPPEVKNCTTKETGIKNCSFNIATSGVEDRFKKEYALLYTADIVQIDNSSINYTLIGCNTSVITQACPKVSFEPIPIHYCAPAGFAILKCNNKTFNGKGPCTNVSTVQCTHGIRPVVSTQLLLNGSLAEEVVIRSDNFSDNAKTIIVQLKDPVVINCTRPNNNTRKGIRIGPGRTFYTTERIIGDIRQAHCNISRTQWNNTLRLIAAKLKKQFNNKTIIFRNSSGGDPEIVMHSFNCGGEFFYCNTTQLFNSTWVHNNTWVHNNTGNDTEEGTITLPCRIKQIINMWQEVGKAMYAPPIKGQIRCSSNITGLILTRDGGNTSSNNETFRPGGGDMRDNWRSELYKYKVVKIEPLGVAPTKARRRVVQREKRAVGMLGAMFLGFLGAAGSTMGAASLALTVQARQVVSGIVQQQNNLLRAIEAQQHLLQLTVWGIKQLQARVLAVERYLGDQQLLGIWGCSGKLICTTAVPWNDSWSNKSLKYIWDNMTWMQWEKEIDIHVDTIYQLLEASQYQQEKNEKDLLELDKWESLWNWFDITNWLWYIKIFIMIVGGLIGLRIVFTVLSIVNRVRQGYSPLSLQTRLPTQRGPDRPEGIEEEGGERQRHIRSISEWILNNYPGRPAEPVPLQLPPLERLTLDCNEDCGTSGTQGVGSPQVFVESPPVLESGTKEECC

Q: Which results are given for `CC[C@H](C)[C@H](NC(C)=O)C(=O)N[C@@H](CCC(=O)O)C(=O)N[C@@H](CCC(=O)O)C(=O)N[C@@H](CC(C)C)C(=O)N[C@H](C(=O)NC1CCSCc2cccc(c2)CSCCC(C(=O)N[C@@H](CCC(N)=O)C(=O)N[C@@H](CCC(N)=O)C(=O)N[C@@H](CCCNC(=N)N)C(=O)N[C@@H](CCCCN)C(=O)N[C@@H](CC(N)=O)C(=O)N[C@@H](CCC(=O)O)C(=O)N[C@@H](CCC(=O)O)C(=O)N[C@@H](C)C(=O)N[C@@H](CC(C)C)C(=O)N[C@@H](CCCNC(=N)N)C(=O)N[C@@H](CCC(=O)O)C(=O)N[C@@H](CC(C)C)C(N)=O)NC(=O)[C@H](CCC(N)=O)NC(=O)[C@H](C)NC(=O)[C@H](C)NC1=O)[C@@H](C)CC` (some centres undefined) (Ac-IEELI[ξhCys]AAQ[ξhCys]QQRKNEEALREL-NH2; linker 6-10 via mXylylene)?
A: EC50 [1]: 6900 nM; EC50 [2]: 327 nM; Ratio EC50 [3]: 2.5; Ratio EC50 [4]: 3.6; Ratio EC50 [5]: 2; EC50 [6]: 86.4 nM; CI [7]: 0.4; EC50 [8]: 15.2 to 15.4 nM; Ratio EC50 [9]: 2.9; CI [10]: 0.4; EC50 [11]: 11 to 27.1 nM; EC50 [12]: 11.1 nM; EC50 [13]: 22.1 nM; EC50 [14]: 1010 nM; Ratio EC50 [15]: 5; CI [16]: 0.9; Ratio EC50 [17]: 2

Q: Which EC50 [18] does the source give for H-EMTWEEWEKKIEEYTKKIEEILK-OH here?
A: 2.2 nM

Q: What about the EC50 [1] of the same compound?
A: 1.4 nM

Q: What about the “Ratio EC50” value [19] of the same compound?
A: 3.8

Q: And the EC50 [20]?
A: 0.9 nM

Q: What about the EC50 [6] of the same compound?
A: 4.8 nM

Q: What about the EC50 [21] of the same compound?
A: 0.7 nM

Q: What about the “Ratio EC50” value [22] of the same compound?
A: 1.9

Q: And the EC50 [8]?
A: 2.6 nM

Q: And the EC50 [23]?
A: 0.6 nM

Q: And the EC50 [11]?
A: 2.5 nM

Q: What about the EC50 [13] of the same compound?
A: 3.4 nM

Q: What about the EC50 [14] of the same compound?
A: 4.1 nM
